Experimental data reported in US9822105B2, “Diaminotriazine compounds as herbicides” (BASF SE, priority 2014, dated 2017).

Tests used:
[1] = test system: AMARE; assay: Greenhouse test, post-emergence treatment; format: in vivo, Amaranthus retroflexus
Text: (§1) The seeds of the test plants were sown separately for each species. For the post-emergence treatment, the test plants were first grown to a height of […], depending on the plant habit, and only then treated with the active ingredients which had been suspended or emulsified in water. For this purpose, the test plants were either sown directly and grown in the same containers, or they were first grown separately as seedlings and transplanted into the test containers a few days prior to treatment. Depending on the species, the plants were kept at 10-25° C. or 20-35° C., respectively. The test period extended over 2 to 4 weeks. During this time, the plants were tended, and their response to the individual treatments was evaluated. Evaluation was carried out using a scale from 0 to 100. 100 means no emergence of the plants, or complete destruction of at least the aerial moieties, and 0 means no damage, or normal course of growth. […] The plants used in the greenhouse experiments were of the following species: [table]

[2] = test system: BRSNW; assay: Greenhouse test, post-emergence treatment; format: in vivo, Winter rape; conditions: 0.0312 kg/ha
Text: as §1

[3] = test system: CHEAL; assay: Greenhouse test, post-emergence treatment; format: in vivo, Chenopodium album; conditions: 0.0312 kg/ha
Text: as §1

[4] = test system: AMARE; assay: Greenhouse test, pre-emergence treatment; format: in vivo, Amaranthus retroflexus
Text: (§2) The seeds of the test plants were sown separately for each species. For the pre-emergence treatment, the active ingredients, which had been suspended or emulsified in water, were applied directly after sowing by means of finely distributing nozzles. The containers were irrigated gently to promote germination and growth and subsequently covered with transparent plastic hoods until the plants had rooted. This cover caused uniform germination of the test plants, unless this had been impaired by the active ingredients. Depending on the species, the plants were kept at 10-25° C. or 20-35° C., respectively. The test period extended over 2 to 4 weeks. During this time, the plants were tended, and their response to the individual treatments was evaluated. Evaluation was carried out using a scale from 0 to 100. 100 means no emergence of the plants, or complete destruction of at least the aerial moieties, and 0 means no damage, or normal course of growth. […] The plants used in the greenhouse experiments were of the following species: [table]

[5] = test system: ALOMY; assay: Greenhouse test, pre-emergence treatment; format: in vivo, Alopecurus myosuroides
Text: as §2

[6] = test system: SETFA; assay: Greenhouse test, pre-emergence treatment; format: in vivo, Setaria faberi; conditions: 0.5 kg/ha, SETFA
Text: as §2

[7] = test system: APESV; assay: Greenhouse test, pre-emergence treatment; format: in vivo, Apera spica-venti; conditions: 250 g/ha
Text: as §2

[8] = test system: ABUTH; assay: Greenhouse test, post-emergence treatment; format: in vivo, Abutilon theophrasti
Text: as §1

[9] = test system: SETVI; assay: Greenhouse test, post-emergence treatment; format: in vivo, Setaria viridis; conditions: 125 g/ha, STEVI
Text: as §1

[10] = 500 g/ha, stated in words without grade

Q: `CC(C)(F)c1nc(N)nc(Nc2c(F)ccc3c2OCO3)n1` [Example 1, N2-(5-fluoro-1,3-benzodioxo1-4-yl)-6-(1-fluoro-1-methyl-ethyl)-1,3,5-triazine-2,4-diamine] was tested. Which herbicidal activity ([1]; 0.0312 kg/ha) did it give?
A: The herbicidal activity was “very good (a very good herbicidal activity is given at values of at least 85)”.

Q: What about the herbicidal activity [2] of the same compound?
A: The herbicidal activity was “good (a good herbicidal activity is given at values of at least 70)”.

Q: And the herbicidal activity [3]?
A: The herbicidal activity was “good (a good herbicidal activity is given at values of at least 70)”.

Q: How did the herbicidal activity ([4]; 0.5 kg/ha) turn out when `CC(C)(F)c1nc(N)nc(Nc2c(Br)ccc3c2OCO3)n1` [Example 3] was run?
A: Its herbicidal activity is “very good (a very good herbicidal activity is given at values of at least 85)”.

Q: And the herbicidal activity ([5]; 0.5 kg/ha)?
A: The herbicidal activity was “very good (a very good herbicidal activity is given at values of at least 85)”.

Q: And the herbicidal activity [6]?
A: Its herbicidal activity is “very good (a very good herbicidal activity is given at values of at least 85)”.

Q: What does the source list for `CC1(c2nc(N)nc(Nc3c(F)ccc4c3OCO4)n2)CCCCC1` [Example 6]?
A: pest or weed control at 250 g/ha ([4]; Amaranthus retroflexus, read-out: herbicidal activity, 250 g/ha): ≥ 70%; herbicidal activity ([5]; 250 g/ha): good (a good herbicidal activity is given at values of at least 70); herbicidal activity [7]: very good (a very good herbicidal activity is given at values of at least 85)

Q: What does the source list for `Nc1nc(Nc2c(F)ccc3c2OCO3)nc(N2CCC2)n1` [Example 18]?
A: herbicidal activity [1, 10]: herbicidal activity; herbicidal activity [8, 10]: herbicidal activity

Q: With `Nc1nc(Nc2c(F)ccc3c2OCO3)nc(N2CCCCC2)n1` [Example 21] as the compound, how does the herbicidal activity ([1]; 500 g/ha) read?
A: Its herbicidal activity is “very good (a very good herbicidal activity is given at values of at least 85)”.

Q: What about the herbicidal activity ([8]; 500 g/ha) of the same compound?
A: Its herbicidal activity is “good (a good herbicidal activity is given at values of at least 70)”.

Q: How did the herbicidal activity ([1]; 125 g/ha) turn out when `CC(C)(F)c1nc(N)nc(Nc2c(F)c(F)cc3c2OCO3)n1` [Example 30] was run?
A: Its herbicidal activity is “very good (a very good herbicidal activity is given at values of at least 85)”.

Q: And the herbicidal activity ([8]; 125 g/ha)?
A: Its herbicidal activity is “very good (a very good herbicidal activity is given at values of at least 85)”.

Q: And the herbicidal activity [9]?
A: The herbicidal activity was “very good (a very good herbicidal activity is given at values of at least 85)”.
